A short description of data set [1]: Kinetic solubility of the compound in ph 7.4 PBS buffer measured after 24 hrs shaken by HPLC and UPLC system. Format: physicochemical. The note with it: read-out: Kinetic_solubility.
The target of data set [2] is Short transient receptor potential channel 1 (Rattus norvegicus) (UniProt Q9QX01). As to the kind of experiment: Antagonist activity at rat TRPC1 expressed in HEK293 cells assessed as inhibition of carbachol-induced activity at 10 uM measured after 48 hrs by Whole-cell patch clamp electrophysiology. It is filed as cell-based. (In patch-clamp work, channel activity is measured electrically.)

Data set [3] is described as follows: Metabolic stability in mouse liver microsomes assessed as intrinsic clearance measured up to 60 mins by LC-MS/MS analysis. It is filed as ADME, Microsome. As to conditions: 1 h. For orientation: Liver microsomes are vesicles of endoplasmic reticulum, rich in cytochrome P450 enzymes.
The next data set deals with Cytochrome P450 3A4 (Homo sapiens, UniProt P08684). Kind of data set: Inhibition of human liver microsomes CYP3A4-M measured after 10 mins incubation by LC-MS analysis. Format: ADME, Microsome.
The test system of data set [4] is Hippocampal neurone. As to the kind of experiment: Rescuing beta-amyloid induced neuronal cell damage in Sprague-Dawley rat primary hippocampal cell culture (composed of 60% primary neuron, 20% microglia and 20% astrocyte) assessed as decrease in soluble oligomeric Abeta-containing media (7PA2 cells) induced functional synapses by measuring decrease in PSD95 clustering level at 100 nM. It is filed as cell-based.

Data set [5] in a line: Metabolic stability in mouse liver microsomes assessed as half life measured up to 60 mins by LC-MS/MS analysis. Format: ADME, Microsome. As to conditions: 1 h.
The target of data set [6] is T1, Short transient receptor potential channel 3 (Homo sapiens) (UniProt Q13507).
T1 sequence (whole entry): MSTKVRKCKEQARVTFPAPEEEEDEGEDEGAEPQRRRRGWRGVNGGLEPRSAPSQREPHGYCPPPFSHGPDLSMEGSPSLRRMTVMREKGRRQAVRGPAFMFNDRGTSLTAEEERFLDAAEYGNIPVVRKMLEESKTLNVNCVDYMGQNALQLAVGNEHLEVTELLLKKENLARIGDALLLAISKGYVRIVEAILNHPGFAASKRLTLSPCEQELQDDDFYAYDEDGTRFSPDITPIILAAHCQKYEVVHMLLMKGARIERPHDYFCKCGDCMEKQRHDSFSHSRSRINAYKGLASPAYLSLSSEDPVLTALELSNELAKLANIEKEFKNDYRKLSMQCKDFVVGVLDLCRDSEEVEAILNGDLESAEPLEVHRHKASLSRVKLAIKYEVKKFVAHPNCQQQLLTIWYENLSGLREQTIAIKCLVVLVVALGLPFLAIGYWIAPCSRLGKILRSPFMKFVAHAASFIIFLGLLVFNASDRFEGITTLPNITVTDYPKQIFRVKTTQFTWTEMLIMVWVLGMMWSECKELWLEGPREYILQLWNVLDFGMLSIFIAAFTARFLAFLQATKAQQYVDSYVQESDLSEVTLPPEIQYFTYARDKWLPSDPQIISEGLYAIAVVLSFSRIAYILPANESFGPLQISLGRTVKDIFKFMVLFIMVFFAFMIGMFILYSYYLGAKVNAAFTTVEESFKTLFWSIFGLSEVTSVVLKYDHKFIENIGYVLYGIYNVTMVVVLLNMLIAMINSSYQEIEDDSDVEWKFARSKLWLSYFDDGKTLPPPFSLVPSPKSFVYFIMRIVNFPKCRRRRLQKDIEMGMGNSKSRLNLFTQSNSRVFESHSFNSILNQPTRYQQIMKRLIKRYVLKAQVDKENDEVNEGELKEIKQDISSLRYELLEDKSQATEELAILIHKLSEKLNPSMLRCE
As to the kind of experiment: Antagonist activity at human TRPC3 expressed in HEK293 cells assessed as inhibition of carbachol-induced activity at 10 uM measured after 48 hrs by Whole-cell patch clamp electrophysiology relative to control. The note with it: filed as antagonist. Format: cell-based.

The subject of data set [7] is Hippocampal neurone. As to the kind of experiment: Rescuing beta-amyloid induced neuronal cell damage in Sprague-Dawley rat primary hippocampal cell culture (composed of 60% primary neuron, 20% microglia and 20% astrocyte) assessed as decrease in soluble oligomeric Abeta-containing media (7PA2 cells) induced astrogliosis (GFAP) at 500 nM by immunostaining analysis. It is filed as functional, cell-based.

In a further data set the target is T2, Cytochrome P450 1A2 (Homo sapiens, UniProt P05177).
T2 sequence (P05177 whole entry): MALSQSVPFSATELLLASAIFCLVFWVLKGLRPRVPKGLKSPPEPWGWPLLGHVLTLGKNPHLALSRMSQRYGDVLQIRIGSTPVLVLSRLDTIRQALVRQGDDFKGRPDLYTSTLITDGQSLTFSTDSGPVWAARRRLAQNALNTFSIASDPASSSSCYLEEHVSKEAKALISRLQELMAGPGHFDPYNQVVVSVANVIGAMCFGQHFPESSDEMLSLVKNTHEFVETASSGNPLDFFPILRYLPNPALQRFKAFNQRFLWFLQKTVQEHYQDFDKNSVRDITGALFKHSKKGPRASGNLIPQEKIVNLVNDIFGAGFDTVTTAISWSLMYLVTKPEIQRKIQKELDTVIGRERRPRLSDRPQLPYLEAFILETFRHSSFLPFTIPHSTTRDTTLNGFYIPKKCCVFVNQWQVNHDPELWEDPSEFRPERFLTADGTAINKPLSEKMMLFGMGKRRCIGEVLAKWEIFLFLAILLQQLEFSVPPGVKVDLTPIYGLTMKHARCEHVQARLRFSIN
As to the kind of experiment: Inhibition of human liver microsomes CYP1A2 measured after 10 mins incubation by LC-MS analysis. Format: ADME, Microsome.

From ChEMBL document CHEMBL6078670, “Discovery of a potent and selective TRPC3 antagonist with neuroprotective effects” (Bioorg Med Chem, 2025) come the findings set out here.

Usually pIC50 stands for the IC50 on a negative log10 scale, so that one unit is a factor of ten. For orientation: inhibition means how much of the control response was suppressed.

Structures are written as SMILES. pIC50: −log10 of the molar value. In brackets after ≈: the same amount, converted by molar mass. Activity calls are given as the source filed them. The calls are words filed in the database; no cut-off is given here. Where only a bound is given, the exact number is not on record here.

Sequence of Short transient receptor potential channel 1 (Rattus norvegicus) (Q9QX01 whole entry): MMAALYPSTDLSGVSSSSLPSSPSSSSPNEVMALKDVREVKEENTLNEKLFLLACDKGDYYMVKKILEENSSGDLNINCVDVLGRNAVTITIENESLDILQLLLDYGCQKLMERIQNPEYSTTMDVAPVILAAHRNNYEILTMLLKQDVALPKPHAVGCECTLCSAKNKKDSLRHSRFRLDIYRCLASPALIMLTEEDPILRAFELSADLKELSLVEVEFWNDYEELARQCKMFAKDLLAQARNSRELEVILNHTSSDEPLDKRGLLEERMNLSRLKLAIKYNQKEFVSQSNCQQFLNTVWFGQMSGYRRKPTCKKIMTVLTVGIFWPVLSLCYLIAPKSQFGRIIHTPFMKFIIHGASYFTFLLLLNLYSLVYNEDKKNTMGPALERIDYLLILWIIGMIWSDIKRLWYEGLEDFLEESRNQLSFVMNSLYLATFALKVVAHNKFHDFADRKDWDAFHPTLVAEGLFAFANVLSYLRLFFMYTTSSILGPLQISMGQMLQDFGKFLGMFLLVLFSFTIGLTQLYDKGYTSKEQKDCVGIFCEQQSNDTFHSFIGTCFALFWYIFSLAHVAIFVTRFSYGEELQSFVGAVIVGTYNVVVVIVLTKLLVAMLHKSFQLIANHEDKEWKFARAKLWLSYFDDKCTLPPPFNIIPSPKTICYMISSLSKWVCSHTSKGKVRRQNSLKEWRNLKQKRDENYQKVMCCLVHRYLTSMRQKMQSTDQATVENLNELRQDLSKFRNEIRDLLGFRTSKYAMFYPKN
Sequence of Cytochrome P450 3A4 (P08684 whole entry): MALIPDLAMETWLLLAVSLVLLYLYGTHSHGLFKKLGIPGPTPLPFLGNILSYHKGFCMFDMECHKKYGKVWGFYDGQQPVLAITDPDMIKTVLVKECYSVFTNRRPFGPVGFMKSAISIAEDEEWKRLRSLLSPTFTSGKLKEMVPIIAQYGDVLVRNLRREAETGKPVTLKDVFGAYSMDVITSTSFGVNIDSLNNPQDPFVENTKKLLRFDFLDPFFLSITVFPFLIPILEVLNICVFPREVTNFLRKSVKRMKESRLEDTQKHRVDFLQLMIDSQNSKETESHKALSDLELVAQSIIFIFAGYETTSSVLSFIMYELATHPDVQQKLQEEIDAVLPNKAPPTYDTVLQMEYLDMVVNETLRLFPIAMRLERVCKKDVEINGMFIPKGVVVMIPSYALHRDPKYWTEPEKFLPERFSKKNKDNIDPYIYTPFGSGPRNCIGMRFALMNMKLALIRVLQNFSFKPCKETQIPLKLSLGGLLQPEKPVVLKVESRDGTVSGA

Turning to `CCNCc1cnn(-c2ccc(-n3ccc(Cl)c(Cl)c3=O)cc2)c1C(F)(F)F`, the solubility kinetic at 24 h in [1] is 0.2 µM (≈ 0.0862 µg/mL). In data set [2], the result was inactive. Besides, the CLH in data set [3] was 33 µL/min/mg. Further, the negative-log IC50 (pIC50) on Cytochrome P450 3A4 and on Cytochrome P450 1A2 was less than 4.30 throughout. Besides, the outcome with Hippocampal neurone [4] and in the data set on Hippocampal neurone [7] was Active. Also, in [5], the t1/2 is given as 21 min. Moreover, the inhibition in data set [6] was more than 97%.
